Ends that are not written are not given here.
Test: Circular dichroism spectroscopy
Type: physicochemical
Settings: CD, 50% (v/v) TFE
In short: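 Secondary structure of peptides dissolved in water at 0.3–0.5 mg/mL was assessed by CD. Spectra were recorded from 180 to 260 nm at room temperature in a 0.1 cm quartz cuvette; water and 50% (v/v) TFE conditions were compared.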

Substance: TVGGLVKWILKTVKKFA-NH2 [STIP3-29, TVGGLVKWILKTVKKFA-NH2]
- α helicity (%): 61%

Source: US12370235B2, “Synthetic, non-natural antimicrobial peptides inspired by Staphylococcus auricularis delta toxin” (University of Saskatchewan, priority 2021, dated 2025)
